Here are results for seven compounds from BindingDB's records for patent WO2024186584 (8932 Hightail Drive, 2024).

The target in one assay is Alpha-synuclein (Homo sapiens, UniProt P37840). Put plainly: Alpha-Synuclein Tissue Homogenate Binding Assay. The method, then:
For displacement α-synuclein binding assay, compounds and control were solvated in dimethyl sulfoxide (DMSO) and transferred using focused acoustic energy by an Echo 655 liquid handling instrument (Beckman Coulter, Indianapolis, IN) into designated wells of uniquely bar coded 96-well v-bottom low binding polypropylene microplates (Thermo Scientific, 249946). Compound dose response curves were prepared in a 10-point, 3-fold fashion within columns 2 -11 of the microplate from high to low compound concentrations. The final assay concentration of dose response curves when starting at 1 mM ranged from 1.2 µM to 0.061 nM (0.12 % DMSO final assay concentration, 270 nL/well). Controls included no inhibitor (DMSO only) dispensed into wells A1 – D1, A12 – D12 for minimum efficacy signal and Compound 1000 at a final assay concentration of 12 µM into wells E1 – H1, E12 – H12 for maximum efficacy signal. Liquid-handling steps for dispensing insoluble fractions of PD brain homogenates and 25666 radioligand were performed using a Bravo automated liquid handling platform equipped with a 96LT disposable tip head (Agilent Technologies, Santa Clara, CA). […] A clear adhesive seal (TopSeal-A PLUS, PerkinElmer 6050185) was then applied to the top of each microplate and counted 1 minute/well on MicroBeta2 system (PerkinElmer, Model: 2450-0120).
`FCOC[C@H]1CN(c2ncc(/C=C/c3ccc(-n4ccnc4)nc3)cn2)CCN1c1ncccn1` [WO2024186584, Example 4] gave a Ki of 0.0012 µM. On the same count and under the same terms, the result for `COC[C@H]1CN(c2cc(F)ccn2)CCN1c1ncc(/C=C/c2ccc(-n3ccnc3)nc2)cn1` [WO2024186584, Example 17] reads 0.0009 µM.

The next assay deals with Amyloid-beta precursor protein (Homo sapiens, UniProt P05067). Put plainly: Competitive radioligand binding to pathological aggregated beta amyloid in AD tissue.
Sequence of Amyloid-beta precursor protein (P05067 whole entry): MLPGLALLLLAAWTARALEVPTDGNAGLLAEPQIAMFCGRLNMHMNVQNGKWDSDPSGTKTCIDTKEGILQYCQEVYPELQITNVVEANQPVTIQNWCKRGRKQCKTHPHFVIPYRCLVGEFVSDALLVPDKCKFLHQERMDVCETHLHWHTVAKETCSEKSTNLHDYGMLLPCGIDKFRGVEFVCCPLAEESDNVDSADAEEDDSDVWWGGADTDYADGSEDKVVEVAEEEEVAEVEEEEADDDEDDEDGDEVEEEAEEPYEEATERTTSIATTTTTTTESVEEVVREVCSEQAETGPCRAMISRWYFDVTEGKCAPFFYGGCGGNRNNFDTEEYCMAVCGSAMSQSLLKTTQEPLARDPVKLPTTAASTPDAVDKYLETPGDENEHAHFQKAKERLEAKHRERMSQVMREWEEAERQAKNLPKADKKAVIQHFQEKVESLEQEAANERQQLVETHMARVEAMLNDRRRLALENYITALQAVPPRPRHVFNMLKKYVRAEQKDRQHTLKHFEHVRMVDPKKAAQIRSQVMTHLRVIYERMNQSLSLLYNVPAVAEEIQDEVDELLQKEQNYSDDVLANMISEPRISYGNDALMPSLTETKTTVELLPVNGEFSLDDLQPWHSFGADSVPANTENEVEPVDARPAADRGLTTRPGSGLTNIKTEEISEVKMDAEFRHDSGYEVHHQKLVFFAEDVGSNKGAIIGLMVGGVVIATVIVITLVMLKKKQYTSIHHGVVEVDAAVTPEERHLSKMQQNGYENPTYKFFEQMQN
`FCCOC[C@H]1CN(c2ncc(/C=C/c3ccc(-n4ccnc4)nc3)cn2)CCN1c1ncccn1` [WO2024186584, Example 3] yielded a Ki of 4 µM. Regarding `FCOC[C@H]1CN(c2ncc(/C=C/c3ccc(-n4ccnc4)nc3)cn2)CCN1c1ncccn1` [WO2024186584, Example 4], the inhibitory constant (Ki) was found to be 0.1 µM.

In the case of `COC[C@H]1CN(c2ncc(C#Cc3ccc(-n4ccnc4)nc3)cn2)CCN1c1cc(F)ncn1` [WO2024186584, Example 12], the Ki came to 4 µM.

`COC[C@H]1CN(c2ncccn2)CCN1c1ncc(/C=C/c2ccc(-n3ccnc3)nc2)cn1` [WO2024186584, Example 28]: the Ki is 4 µM.

Turning to `COC[C@H]1CN(c2ncc(/C=C/c3ccc(-n4ccnc4)nc3)cn2)CCN1c1ncc(OCCF)cn1` [WO2024186584, Example 35], the Ki was found to be 4 µM. In the case of `COC[C@H]1CN(c2ncc(/C=C/c3ccc(-n4ccnc4)nc3)cn2)CCN1c1ncc(OCC(O)CF)cn1` (stereo partly drawn) [WO2024186584, Example 39], the affinity, expressed as Ki, was 4 µM.

Broadly, the Ki is the dissociation constant of the complex between target and ligand, obtained from inhibition or displacement. The low end stands for higher affinity, the high end for lower affinity.
